From ChEMBL document CHEMBL3397005, “Synthesis and antiproliferative activity of novel polynuclear heterocyclic compounds derived from 2,3-diaminophenazine” (Eur J Med Chem, 2015)
Values after ≈ are worked out from the molar mass of the structure shown. Active and inactive are the calls of the source. No cut-off for these calls is given here.

Experiments:
HCT-116 [1] = experiment: Inhibition of tyrosine kinase in human HCT116 cells at IC50 after 24 hrs by ELISA relative to control; format: cell-based
A549 [2] = experiment: Antiproliferative activity against human A549 cells; format: functional, cell-based
[3] = (§1) Antiproliferative activity against human HCT116 cells; format: functional, cell-based; details: HCT-116
A549 [4] = experiment: Inhibition of tyrosine kinase in human A549 cells at IC50 after 24 hrs by ELISA relative to control; format: cell-based
HCT-116 [5] = experiment: as §1; format: functional, cell-based

Structure (SMILES)	IC50 (A549 [2]) [µg/mL]	inhibition (HCT-116 [1]) [%]	IC50 [3] [µg/mL]	inhibition (A549 [4]) [%]	Activity (A549 [2])	Activity (HCT-116 [5])
O=C(Nc1cc2nc3ccccc3nc2cc1NC(=O)c1ccccc1)c1ccccc1	23.6 (≈ 56.4 µM)	0.5	17.5 (≈ 41.8 µM)	1	–	–
c1ccc2nc3c(nc2c1)Nc1cc2nc4ccccc4nc2cc1N3	–	–	–	–	inactive	inactive
O=c1[nH]c2cc3nc4ccccc4nc3cc2[nH]c1=O	–	–	–	–	inactive	inactive
C(=C\c1nc2cc3nc4ccccc4nc3cc2[nH]1)/c1ccccc1	–	–	–	–	inactive	inactive
CC1CC(=O)Nc2cc3nc4ccccc4nc3cc2N1 (stereo unspecified)	–	–	–	–	inactive	inactive
Nc1cc2nc3ccccc3nc2cc1/N=N/C1C(=O)ON=C1c1ccccc1 (stereo unspecified)	9.8 (≈ 25.6 µM)	68	6.8 (≈ 17.8 µM)	72	–	–
S=c1[nH]c2cc3nc4ccccc4nc3cc2[nH]1	7.7 (≈ 30.5 µM)	85	4.4 (≈ 17.4 µM)	86	–	–
c1ccc2nc3cc4[nH]cnc4cc3nc2c1	21.7 (≈ 98.5 µM)	3	11.4 (≈ 51.8 µM)	5	–	–
Nc1cc2nc3ccccc3nc2cc1N	8.8 (≈ 41.9 µM)	72	6 (≈ 28.5 µM)	80	–	–
O=c1[nH]c2cc3nc4ccccc4nc3cc2[nH]/c1=N/Nc1ccccc1	–	–	–	–	inactive	inactive
CCOC(=O)/C(=N/Nc1ccccc1)Nc1cc2nc3ccccc3nc2cc1N	–	–	–	–	inactive	inactive
c1ccc(-c2nc3cc4nc5ccccc5nc4cc3[nH]2)cc1	–	–	–	–	inactive	inactive
O=C1CC(=O)Nc2cc3nc4ccccc4nc3cc2N1	–	–	–	–	inactive	inactive

Second part, led by results:

IC50 (A549 [2]) [µg/mL]	Structure (SMILES)	inhibition (HCT-116 [1]) [%]	IC50 [3] [µg/mL]	inhibition (A549 [4]) [%]	Activity (A549 [2])	Activity (HCT-116 [5])
19 (≈ 45 µM)	CCOC(=O)c1nn(-c2ccc(C)cc2)c2nc3cc4nc5ccccc5nc4cc3n12	18	9.6 (≈ 22.7 µM)	14	–	–
13.8 (≈ 41.7 µM)	Clc1cccc(-c2nc3cc4nc5ccccc5nc4cc3[nH]2)c1	17	7.9 (≈ 23.9 µM)	15	–	–
27.6 (≈ 90.7 µM)	O=c1oc(=O)c2[nH]c3cc4nc5ccccc5nc4cc3[nH]c1=2	0.4	14.6 (≈ 48 µM)	2	–	–
22 (≈ 55.6 µM)	CC1=NN(c2ccccc2)C(=O)C1/N=N/c1cc2nc3ccccc3nc2cc1N (stereo unspecified)	2	11.9 (≈ 30.1 µM)	4	–	–
11.5 (≈ 31.5 µM)	Clc1ccc(-c2nc3cc4nc5ccccc5nc4cc3[nH]2)c(Cl)c1	12	6.8 (≈ 18.6 µM)	16	–	–
8.4 (≈ 32 µM)	CCCc1nc2cc3nc4ccccc4nc3cc2[nH]1	64	6.5 (≈ 24.8 µM)	70	–	–
8.4 (≈ 31.5 µM)	CSc1nc2cc3nc4ccccc4nc3cc2[nH]1	84	5.2 (≈ 19.5 µM)	85	–	–
17.6 (≈ 39.7 µM)	CCOC(=O)c1nn(-c2ccc(Cl)cc2)c2nc3cc4nc5ccccc5nc4cc3n12	37	8.75 (≈ 19.8 µM)	50	–	–
21 (≈ 51.4 µM)	CCOC(=O)c1nn(-c2ccccc2)c2nc3cc4nc5ccccc5nc4cc3n12	4	11.2 (≈ 27.4 µM)	11	–	–
22.3 (≈ 61.7 µM)	CC1(C)CC(=O)C(/N=N/c2cc3nc4ccccc4nc3cc2N)C(=O)C1	0.6	13.9 (≈ 38.5 µM)	2	–	–
